Measured values as given in patent US20250313533A1, “QUINOLINE CARBOXYLIC ACID ESTER COMPOUND AND PREPARATION METHOD AND USE THEREOF” (priority 2019, published 2025).

Assays:
[1] = tested on: pathogenic bacteria causing bacterial angular leaf spot in cucumbers; assay: In vitro bactericidal activity, bacterial angular leaf spot in cucumbers; assay type: cell-based, pseudomonas; settings: read-out: inhibitory rate; for inhibition at 1 ppm: dosage 1 ppm; for inhibition at 5 ppm: dosage 5 ppm
Procedure: (§1) Under aseptic conditions, equal amounts of NB culture medium were added to test tubes, and fixed amounts of the sample solutions were pipetted into the above test tubes in an ascending order of concentrations, respectively. The mixtures were well mixed and added with equal amounts of a bacterial suspension in log phase.
(§2) Each step of the procedure was repeated 4 times. After mixing, the mixture samples were incubated in the dark in a shaking incubator at 25° C. The OD values were measured when the bacteria were in log phase.

[2] = tested on: pathogenic bacteria causing bacterial wilt in tobacco; assay: whole plant or invertebrate; assay type: cell-based, ralstonia; settings: read-out: inhibitory rate
[3] = tested on: pathogenic bacteria causing black shank in potatoes; assay: In vitro bactericidal activity, black shank in potatoes; assay type: cell-based; settings: read-out: inhibitory rate; for inhibition at 1 ppm: dosage 1 ppm; for inhibition at 5 ppm: dosage 5 ppm
Procedure: as §1, §2

[4] = tested on: pathogenic bacteria causing stem rot in sweet potatoes; assay: In vitro bactericidal activity, stem rot in sweet potatoes; assay type: cell-based, dikia; settings: read-out: inhibitory rate; for inhibition at 1 ppm: dosage 1 ppm; for inhibition at 5 ppm: dosage 5 ppm
Procedure: as §1, §2

[5] = tested on: pathogenic bacteria causing bacterial blight in rice; assay: whole plant or invertebrate; assay type: cell-based, xanthomonas; settings: read-out: inhibitory rate
[6] = tested on: pathogenic bacteria causing fruit blotch in watermelons; assay: In vitro bactericidal activity, fruit blotch in watermelons; assay type: cell-based, acidovorax; settings: read-out: inhibitory rate; for inhibition at 1 ppm: dosage 1 ppm; for inhibition at 5 ppm: dosage 5 ppm
Procedure: as §1, §2

[7] = tested on: pathogenic bacteria causing black rot in Chinese cabbages; assay: In vitro bactericidal activity, black rot in Chinese cabbages; assay type: cell-based, xanthomonas; settings: Xanthomonas, read-out: inhibitory rate; for inhibition at 1 ppm: dosage 1 ppm; for inhibition at 5 ppm: dosage 5 ppm
Procedure: as §1, §2

[8] = tested on: pathogenic bacteria causing bacterial wilt in cassava; assay: organism not typed; assay type: cell-based; settings: read-out: inhibitory rate
[9] = tested on: pathogenic bacteria causing fire blight in pears; assay: In vitro bactericidal activity, fire blight in pears; assay type: cell-based, erwinia; settings: Erwinia, read-out: inhibitory rate; for inhibition at 1 ppm: dosage 1 ppm; for inhibition at 5 ppm: dosage 5 ppm
Procedure: as §1, §2

black shank in potatoes = assay: Living crops in vivo protective activity, potatoes (root irrigation); settings: Solanum tuberosum, read-out: efficacy against black shank in potatoes; for pest or weed control at 5 ppm: dosage 5 ppm; for pest or weed control at 10 ppm: dosage 10 ppm
Procedure: Root irrigation was carried out on the potatoes for tests according to the designed concentration of the agents. The dosage for each plant was 200 mL and was kept consistent (also for the control). The black shank bacteria were inoculated on the second day after the application. The results were investigated according to the disease condition.

cucumber seedlings = assay: Safety for plant growth after application; assay type: in vivo; settings: dosage 200 ppm
Text: Taking indoor potted cucumber seedlings as an example, the influence of the compound disclosed herein on growth rate of plant height, chlorophyll content, leaf area, etc. of crops was mainly evaluated.
The results of safety and health-care effect of the compounds of the present disclosure on cucumber seedlings are shown in the following table 1: […]

[10] = tested on: bacterial wilt in tobacco; assay: whole plant or invertebrate; settings: Nicotiana tabacum, read-out: efficacy against bacterial wilt in tobacco
[11] = tested on: stem rot in sweet potatoes; assay: whole plant or invertebrate; settings: read-out: efficacy against stem rot in sweet potatoes
bacterial blight in rice = assay: whole plant or invertebrate; settings: Oryza sativa, read-out: efficacy against bacterial blight in rice
[12] = tested on: fruit blotch in watermelons; assay: whole plant or invertebrate; settings: read-out: efficacy against fruit blotch in watermelons
[13] = tested on: soft rot in Chinese cabbages; assay: whole plant or invertebrate; settings: 48 h, read-out: efficacy against soft rot in Chinese cabbages

| Structure (SMILES) | inhibition at 1 ppm [1] [%] | inhibition at 5 ppm [1] [%] | inhibition at 1 ppm [2] [%] | inhibition at 5 ppm [2] [%] | inhibition at 1 ppm [3] [%] | inhibition at 5 ppm [3] [%] | inhibition at 1 ppm [4] [%] | inhibition at 5 ppm [4] [%] | inhibition at 1 ppm [5] [%] | inhibition at 5 ppm [5] [%] | inhibition at 1 ppm [6] [%] | inhibition at 5 ppm [6] [%] | inhibition at 1 ppm [7] [%] | inhibition at 5 ppm [7] [%] | inhibition at 1 ppm [8] [%] | inhibition at 5 ppm [8] [%] | inhibition at 1 ppm [9] [%] | inhibition at 5 ppm [9] [%] | pest or weed control at 5 ppm (black shank in potatoes) [%] | pest or weed control at 10 ppm (black shank in potatoes) [%] | further results |
| --- | --- | --- | --- | --- | --- | --- | --- | --- | --- | --- | --- | --- | --- | --- | --- | --- | --- | --- | --- | --- | --- |
| O=C(OCCO)c1cn(C2CC2)c2cc(OCC(F)(F)F)ccc2c1=O [Compound 360] | ≥ 80 | ≥ 90 | ≥ 80 | ≥ 90 | ≥ 80 | ≥ 90 | ≥ 80 | ≥ 90 | ≥ 80 | ≥ 90 | ≥ 80 | ≥ 90 | ≥ 80 | ≥ 90 | ≥ 80 | ≥ 90 | ≥ 80 | ≥ 90 | ≥ 80 | ≥ 90 | safety for plant growth (discoloration, necrosis, wilt, malformation) (cucumber seedlings): safe for plant growth; pest or weed control at 5 ppm [10]: ≥ 90%; pest or weed control at 10 ppm [10]: ≥ 90%; pest or weed control at 5 ppm [11]: ≥ 90%; pest or weed control at 10 ppm [11]: ≥ 90%; pest or weed control at 5 ppm (bacterial blight in rice): ≥ 80%; pest or weed control at 10 ppm (bacterial blight in rice): ≥ 90%; pest or weed control at 5 ppm [12]: ≥ 90%; pest or weed control at 10 ppm [12]: ≥ 90%; pest or weed control at 5 ppm [13]: ≥ 80%; pest or weed control at 10 ppm [13]: ≥ 90% |
| CCOCOC(=O)c1cn(C2CC2)c2cc(OCC)c(F)cc2c1=O [Compound 312] | ≥ 90 | ≥ 90 | ≥ 90 | ≥ 90 | ≥ 90 | ≥ 90 | ≥ 90 | ≥ 90 | ≥ 80 | ≥ 90 | ≥ 90 | ≥ 90 | ≥ 90 | ≥ 90 | ≥ 90 | ≥ 90 | ≥ 90 | ≥ 90 | ≥ 90 | ≥ 90 | safety for plant growth (discoloration, necrosis, wilt, malformation) (cucumber seedlings): safe for plant growth; pest or weed control at 5 ppm [10]: ≥ 90%; pest or weed control at 10 ppm [10]: ≥ 90%; pest or weed control at 5 ppm [11]: ≥ 90%; pest or weed control at 10 ppm [11]: ≥ 90%; pest or weed control at 5 ppm (bacterial blight in rice): ≥ 80%; pest or weed control at 10 ppm (bacterial blight in rice): ≥ 90%; pest or weed control at 5 ppm [12]: ≥ 90%; pest or weed control at 10 ppm [12]: ≥ 90%; pest or weed control at 5 ppm [13]: ≥ 90%; pest or weed control at 10 ppm [13]: ≥ 90% |
| COCCOC(=O)c1cn(C2CC2)c2ccc(Cl)cc2c1=O [Compound 45, 2-methoxyethyl 6-chloro-1-cyclopropyl-4-oxo-1,4-dihydroquinoline-3-carboxylate] | ≥ 90 | ≥ 90 | ≥ 90 | ≥ 90 | ≥ 90 | ≥ 90 | ≥ 90 | ≥ 90 | ≥ 90 | ≥ 90 | ≥ 90 | ≥ 90 | ≥ 90 | ≥ 90 | ≥ 90 | ≥ 90 | ≥ 90 | ≥ 90 | ≥ 80 | ≥ 90 | safety for plant growth (discoloration, necrosis, wilt, malformation) (cucumber seedlings): safe for plant growth; pest or weed control at 5 ppm [10]: ≥ 90%; pest or weed control at 10 ppm [10]: ≥ 90%; pest or weed control at 5 ppm [11]: ≥ 90%; pest or weed control at 10 ppm [11]: ≥ 90%; pest or weed control at 5 ppm (bacterial blight in rice): ≥ 80%; pest or weed control at 10 ppm (bacterial blight in rice): ≥ 90%; pest or weed control at 5 ppm [12]: ≥ 90%; pest or weed control at 10 ppm [12]: ≥ 90%; pest or weed control at 5 ppm [13]: ≥ 80%; pest or weed control at 10 ppm [13]: ≥ 90% |
| CCOCCOC(=O)c1cn(C2CC2)c2cc(SCC)c(F)cc2c1=O [Compound 397] | ≥ 90 | ≥ 90 | ≥ 90 | ≥ 90 | ≥ 90 | ≥ 90 | ≥ 90 | ≥ 90 | ≥ 90 | ≥ 90 | ≥ 90 | ≥ 90 | ≥ 80 | ≥ 90 | ≥ 90 | ≥ 90 | ≥ 80 | ≥ 90 | ≥ 90 | ≥ 90 | safety for plant growth (discoloration, necrosis, wilt, malformation) (cucumber seedlings): safe for plant growth; pest or weed control at 5 ppm [10]: ≥ 90%; pest or weed control at 10 ppm [10]: ≥ 90%; pest or weed control at 5 ppm [11]: ≥ 90%; pest or weed control at 10 ppm [11]: ≥ 90%; pest or weed control at 5 ppm (bacterial blight in rice): ≥ 90%; pest or weed control at 10 ppm (bacterial blight in rice): ≥ 90%; pest or weed control at 5 ppm [12]: ≥ 90%; pest or weed control at 10 ppm [12]: ≥ 90%; pest or weed control at 5 ppm [13]: ≥ 80%; pest or weed control at 10 ppm [13]: ≥ 90% |
| CSc1cc2c(cc1F)c(=O)c(C(=O)OCCO)cn2C1CC1 [Compound 371] | ≥ 90 | ≥ 90 | ≥ 90 | ≥ 90 | ≥ 90 | ≥ 90 | ≥ 90 | ≥ 90 | ≥ 90 | ≥ 90 | ≥ 90 | ≥ 90 | ≥ 90 | ≥ 90 | ≥ 90 | ≥ 90 | ≥ 90 | ≥ 90 | ≥ 90 | ≥ 90 | safety for plant growth (discoloration, necrosis, wilt, malformation) (cucumber seedlings): safe for plant growth; pest or weed control at 5 ppm [10]: ≥ 90%; pest or weed control at 10 ppm [10]: ≥ 90%; pest or weed control at 5 ppm [11]: ≥ 90%; pest or weed control at 10 ppm [11]: ≥ 90%; pest or weed control at 5 ppm (bacterial blight in rice): ≥ 90%; pest or weed control at 10 ppm (bacterial blight in rice): ≥ 90%; pest or weed control at 5 ppm [12]: ≥ 90%; pest or weed control at 10 ppm [12]: ≥ 90%; pest or weed control at 5 ppm [13]: ≥ 90%; pest or weed control at 10 ppm [13]: ≥ 90% |
